# What was measured:
# [1] = system: Aiolos; assay: Intracellular Aiolos expression in BCMA-bead stimulated anti-BCMA CAR T cells (flow cytometry, MFI); type: cell-based, human; settings: CD4+CAR+ or CD8+CAR+ cells; 24 or 72 hours; lenalidomide 1000 nM, Compound A 1, 10, 100 nM, Compound B 0.1, 1, 10 nM
# Procedure: (§1) A BCMA-Fc fusion protein containing the extracellular domain of human BCMA and a human IgG1Fc was conjugated to beads by covalently coupling to the surface of commercially available tosyl-activated magnetic beads having a diameter of approximately […] (M-450 beads, ThermoFisher, Waltham Mass.) (see e.g. International published PCT App. No. WO2019/027850). Following incubation, anti-BCMA CAR-expressing T cells were stained with antibodies and analyzed by flow cytometry to assess intracellular levels of Ikaros and Aiolos in CD4+CAR+ or CD8+CAR+ cells, as measured by median fluorescence intensity (MFI). Median fluorescence intensity (MFI) values for Ikaros and Aiolos were normalized and calculated as a percentage relative to vehicle control.
# [2] = system: lymphoma cells; settings: cited from earlier work
# [3] = system: RPMI-8226 target cells; assay: Rescue: rechallenge of chronically stimulated anti-BCMA CAR T cells with RPMI-8226 in the presence of compound; type: cell-based, human
# Procedure: Anti-BCMA CAR-expressing T cells, produced as described in Example 1, were stimulated with 50 μg BCMA conjugated beads (diameter about 4.5 μm from a 50 μg/ml BCMA-conjugated bead composition) substantially as described in Example 3 to induce chronic stimulation (to produce hypofunctional, exhausted T cells). After the chronic stimulation, the CAR-T cells were rechallenged with RPMI-8226 target cells (labeled with NucLightRed as described in Example 2) at a 1:1 (effector:target) ratio in the presence of (rescued) with Compound A (iberdomide, (S)-3-[4-(4-morpholin-4-ylmethyl-benzyloxy)-1-oxo-1,3-dihydro-isoindol-2-yl]-piperidine-2,6-dione) (1 nM or 10 nM), Compound B ((S)-4-(4-(4-(((2-(2,6-dioxopiperidin-3-yl)-1-oxoisoindolin-4-yl)oxy)methyl)benzyl)piperazin-1-yl)-3-fluorobenzonitrile) (0.1 nM or 1 nM), or DMSO vehicle control.
# Killing activity and cytokine production were assessed as described in Example 3.
# Studies were undertaken to determine whether Compound A (iberdomide, (S)-3-[4-(4-morpholin-4-ylmethyl-benzyloxy)-1-oxo-1,3-dihydro-isoindol-2-yl]-piperidine-2,6-dione) rescued anti-BCMA CAR T cell function following chronic stimulation. To directly stimulate via CAR engagement to induce chronic stimulation of cells, anti-BCMA CAR T cells were stimulated with BCMA conjugated beads (diameter about 4.5 μm from a 50 μg/ml BCMA-conjugated bead composition, generated as described in Example 9) at a ratio of T cells to beads of 1:1. The cells were then incubated at 37° C., 5% CO2 for 7 days.
# Cultures were incubated at 37° C., 5% CO2, and images were taken every 2 hours over 5-7 days with an Essen IncuCyte Zoom live-cell analysis system to track NucLightRed-positive target cells.
# [4] = system: OPM2 (multiple myeloma) cells; assay: Murine orthotopic OPM-2 tumor model (sensitive), anti-BCMA CAR T cells plus Compound A; type: in vivo, mouse; settings: for tumor burden (BLI) versus anti-BCMA CAR T cells alone: combination with 0.5×10^6 CAR T cells, 1 or 3 mg/kg oral, FIG. 6A; for survival versus anti-BCMA CAR T cells alone: FIG. 6B
# Procedure: Anti-tumor effects of anti-BCMA CAR T cells, alone and in combination with concurrent or delayed administration of Compound A (iberdomide, (S)-3-[4-(4-morpholin ylmethyl-benzyloxy)-1-oxo-1,3-dihydro-isoindol-2-yl]-piperidine-2,6-dione), were assessed in disseminated tumor models. The combinatorial effects were assessed in both tumor models sensitive to and resistant to the immunomodulatory compound. The anti-BCMA CAR T cells used in the study were produced as described in Example 1.
# The effects of anti-BCMA CAR-T cells in combination with Compound A was assessed in a murine orthotopic tumor model using OPM-2 cells, which is an tumor model sensitive to the immunomodulatory compound. Mice (NOD.Cg-Prkdc^scidIL-2rg^tm1Wj1/SzJ mice (NSG; Jackson Labs)) were injected intravenously (i.v.) with 2×10^6 OPM2 (multiple myeloma) cells transfected with firefly luciferase (OPM2-ffluc). Tumor engraftment was allowed to occur for 13 days prior to staging (14 days before CAR-T cell administration) and verified using bioluminescence imaging.
# In one study, mice were administered Compound A (1 mg/kg or 3 mg/kg) via oral administration once a day starting from the day before administration of 0.5×10^6 anti-BCMA CAR T cells, and administration of Compound A was continued once a day until 32 days post-CAR T cell administration (concurrent dosing). In another study, mice were administered 0.5×10^6 anti-BCMA CAR T cells, and then Compound A (1 mg/kg or 3 mg/kg) was administered via oral administration once a day starting 12 days after anti-CAR T cell administration, which was after the peak of CAR-expressing T cell expansion, and administration was continued for 21 days until 32 days post-CAR T cell administration (delayed dosing).
# For bioluminescence imaging (BLI), mice received intraperitoneal (i.p.) injections of luciferin substrate (CaliperLife Sciences, Hopkinton, Mass.) resuspended in PBS (15 μg/g body weight). The average radiance (p/s/cm^2/sr) was determined. Survival of mice treated as described above were assessed and compared over time post-infusion of CAR-expressing T cells. Survival curves were generated using the Kaplan-Meier method (GraphPad Prism 7.0, GraphPad Software, La Jolla).
# The numbers of CD3+ CAR T cells were determined in the blood at day 6 and day 14 by flow cytometry using antibodies directed against CD3 and the surrogate marker on the CAR-expressing cells.
# [5] = system: Ikaros; assay: Intracellular Ikaros expression in BCMA-bead stimulated anti-BCMA CAR T cells (flow cytometry, MFI); type: cell-based, human
# Procedure: as §1
compound,measurement,setting,value
"O=C1CC[C@H](N2Cc3c(OCc4ccc(CN5CCOCC5)cc4)cccc3C2=O)C(=O)N1 [Compound A, (S)-3-[4-(4-morpholin-4-ylmethyl-benzyloxy)-1-oxo-1,3-dihydro-isoindol-2-yl]-piperidine-2,6-dione]","intracellular Aiolos expression (MFI, percentage relative to vehicle control)",[1],concentration dependent decrease
same,direct anti-proliferative effects on lymphoma cells,[2],potent direct anti-proliferative effects
same,rescue of chronically activated CAR T cells,"[3]; Example 4: Compound A 1 or 10 nM, Compound B 0.1 or 1 nM during re-challenge",able to rescue chronically activated CAR T cells to improve functionality
same,"cytolytic activity, compound present during re-challenge","[3]; Example 8: E:T 0.3:1, Compound A 1 nm or 10 nM, versus no compound, FIG. 10A",improvement in cytolytic activity
same,production of IFN-gamma,"[3]; Example 8: supernatant at 24 hours, FIG. 10B",increased production
same,production of IL-2,"[3]; Example 8: supernatant at 24 hours, FIG. 10C",increased production
same,production of TNF-alpha,"[3]; Example 8: supernatant at 24 hours, FIG. 10D",increased production
same,single agent antitumor activity,"[4]; Compound A alone, 1 or 3 mg/kg oral once a day",some single agent antitumor activity
same,tumor burden (BLI) versus anti-BCMA CAR T cells alone,[4]; concurrent dosing,reduce tumor burden
same,tumor burden (BLI) versus anti-BCMA CAR T cells alone,[4]; delayed dosing from day 12,reduce tumor burden
same,survival versus anti-BCMA CAR T cells alone,"[4]; combination, concurrent dosing",improve survival
same,numbers of CD3+ CAR+ T cells in the blood,"[4]; combination, concurrent regimen, day 6 and day 14, FIG. 6C",trend towards increased numbers
same,survival versus anti-BCMA CAR T cells alone,"[4]; combination, delayed dosing",improve survival
same,"intracellular Ikaros expression (MFI, percentage relative to vehicle control)","[5]; CD4+CAR+ or CD8+CAR+ cells, 24 or 72 hours, lenalidomide 1000 nM, Compound A 1, 10, 100 nM, Compound B 0.1, 1, 10 nM",concentration dependent decrease
same,"potency in decreasing Ikaros and Aiolos expression, compared with lenalidomide",[5]; stimulated anti-BCMA CAR T cells,more potent than lenalidomide
